Results on 7 compounds are retold here after patent US9050343B2 (ACADIA Pharmaceuticals Inc., priority 2007, dated 2015).

Values joined by “and” are separate entries in the source; they are usually repeats but may differ in a detail not shown here. Equal values may be shown once. Read-outs that look alike come from different tables or passages of the source.

The subject of one data set is catalepsy in rats. The experiment in a line: Catalepsy assessment. It is filed as in vivo. The source says:
(§1) Male non-Swiss albino (NSA) mice and Sprague-Dawley (SD) rats (Harlan, San Diego, Calif.) served as subjects for the present investigation. Animals were housed in climate-controlled rooms on a 12/12 light dark cycle with on lights at 0600 hr. Rats were housed in groups of two and mice were housed in groups of eight. Food and water was available ad libitum except during experimental procedures.
In order to generate dose-response curves raw CVs were converted to percentage maximum possible catalepsy (% MPC): % MPC=((CV drug or drug combination−CV vehicle control)/(120−CV vehicle control))*100. […] Each dose or dose combination was assessed in separate groups of rats.

Another data set has as its system prolactin levels. Particulars: haloperidol-treated patients compared to risperidone patients.
For data set [1] the following is noted: haloperidol 2 mg per day alone or with pimavanserin 20 mg per day.
The test system of a further data set is serum prolactin levels. The experiment in a line: Prolactin assay (serum prolactin). Particulars: for serum prolactin levels, dose response: compared to vehicle controls, pimavanserin up to 3 mg/kg, FIG. 20A. The format is in vivo, rats.
Source text: as §1
Rats were deeply anesthetized with isoflurane and blood samples were obtained by cardiac puncture, allowed to clot and then centrifuged at 12,000 rpm for 10 min to yield serum for analysis. Serum prolactin levels were quantified using a commercially available enzyme immunoassay kit (ALPCO Diagnostics, Windham, N.H.).

The test system of data set [2] is amphetamine-induced hyperlocomotion in mice. The experiment in a line: Amphetamine-induced hyperlocomotor activity assay. Particulars: for suppression of amphetamine-induced hyperlocomotion: pimavanserin at 0.03 mg/kg sc; for suppression of amphetamine-induced hyperlocomotor activity: antipsychotic combined with a fixed dose of pimavanserin (0.03 mg/kg). It is filed as in vivo.

For data set [3], the system named is dizocilpine-induced hyperlocomotion in mice. The experiment in a line: Dizocilpine-induced hyperlocomotor activity assay and isobolographic analysis. It is filed as in vivo. The conditions noted are these: for ID50: agent alone, sc.
For data set [4], the system named is schizophrenic subjects with an acute exacerbation of psychosis. The experiment in a line: Randomized double blind study in schizophrenic subjects: PANSS and CGI-S. The format is in vivo, human.
For data set [5] the following is noted: initial parameter for simulation, 5 mg once daily oral.
A short description of data set [6]: Simulation of pimavanserin plasma concentration-time profile, 20 mg once daily. Particulars: initial parameter for simulation, 20 mg once daily oral.
The test system of another data set is alpha-adrenergic. The experiment in a line: Alpha-adrenergic antagonist activity. The source says:
(§2) Further, the compound lacks potency at the 5HT2B receptor that controls gastrointestinal function and myocardial development.

Data set [7] concerns rat model of deficits in sensory motor gating. The experiment in a line: Sensory motor gating deficit induced by DOI. The conditions noted are these: doses of 1 and 3 mg/kg SC.
Data set [8] is described as follows: Pimavanserin plasma pharmacokinetics fitted to 1-compartment model. The format is in vivo. The source says: Initial parameters for the simulation were obtained by fitting mean plasma concentration-time data to a 1-compartment model (first order input, no lag time and first order elimination).
Data set [9] has as its system radial arm maze in vivo mouse model of cognition. The experiment in a line: Radial arm maze model of cognition. The conditions noted are these: pimavanserin (1 mg/kg) in combination with risperidone; FIG. 19. Also on record: species or system mice.
A short description of data set [10]: Unbound fraction in plasma. It is filed as in vitro ADME. The conditions noted are these: parameter used for occupancy simulation, read-out: fu (unbound fraction in plasma). The source says:
CR may then be calculated using equation 2. CR=fu*Cpl(t), where fu is the free fraction of drug in plasma and Cpl(t) is the plasma concentration at time t.

For data set [11] the following is noted: multiple oral doses; cited from earlier work.
Data set [12] has as its system in vivo mouse model of cognition. The experiment in a line: Novel object recognition assay. Also on record: species or system mice. The conditions noted are these: pimavanserin (0.3 mg/kg) in combination with risperidone or olanzapine; FIG. 18. How it is done:
Compounds were administered to mice at one hour post-training (a time-point at which animals normally behaviorally discriminate between novel and familiar objects) and two hours post-training (a time-point at which these animals normally no longer discriminate between objects).

The target of the next data set is 5HT2B receptor (Homo sapiens, UniProt P41595). The experiment in a line: Potency at 5HT2B receptor. The source says: […]. Further, the compound lacks potency at the 5HT2B receptor that controls gastrointestinal function and myocardial development.
For data set [13], the system named is hyperactivity in mice induced by MK-801. The experiment in a line: MK-801 induced hyperactivity. The conditions noted are these: oral doses of 3 and 10 mg/kg.
Another data set has as its system histaminergic receptors. The experiment in a line: Activity at histaminergic receptors.
Source text: as §2

Data set [14] is described as follows: Brain levels of pimavanserin and haloperidol. Particulars: Pim + Veh.
The subject of data set [15] is DOI induced head twitches in the rat. The experiment in a line: DOI induced head twitches. The conditions noted are these: oral doses of 3 and 10 mg/kg.
Data set [16] deals with auto-shaped response in mice. The experiment in a line: Learning of a simple auto-shaped response. The conditions noted are these: intraperitoneal doses up to 32 mg/kg.
A further data set concerns muscarinic receptors. The experiment in a line: Activity at muscarinic receptors.
Source text: as §2

The mark [17] stands for this setting: combined with a fixed dose of pimavanserin (0.03 mg/kg).
[18] abbreviates: 14th oral dose of 50 mg, 1-compartment model.
[19] abbreviates: plasma, 14th oral dose of 50 mg, 1-compartment model.

5HT2B receptor, sequence (P41595 whole entry): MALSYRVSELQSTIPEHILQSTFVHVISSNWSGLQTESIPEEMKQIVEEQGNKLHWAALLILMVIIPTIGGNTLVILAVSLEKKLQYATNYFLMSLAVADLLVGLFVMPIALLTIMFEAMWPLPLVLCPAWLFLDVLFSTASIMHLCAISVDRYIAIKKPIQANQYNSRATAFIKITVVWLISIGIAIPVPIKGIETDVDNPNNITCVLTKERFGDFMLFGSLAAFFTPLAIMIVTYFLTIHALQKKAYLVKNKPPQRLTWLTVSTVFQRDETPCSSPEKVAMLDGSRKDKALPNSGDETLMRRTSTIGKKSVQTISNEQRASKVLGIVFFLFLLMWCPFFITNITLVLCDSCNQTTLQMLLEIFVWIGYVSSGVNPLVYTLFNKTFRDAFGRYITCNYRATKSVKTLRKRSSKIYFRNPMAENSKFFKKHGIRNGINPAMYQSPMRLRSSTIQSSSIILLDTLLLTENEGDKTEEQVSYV

Consider `O=C(CCCN1CCC(O)(c2ccc(Cl)cc2)CC1)c1ccc(F)cc1` [Haloperidol, haloperidol], for which the “CD50 (dose that elicits 50% of maximum catalepsy)” value in the data set with catalepsy in rats (agent alone, ip) was 0.27 mg/kg. The CD50 with catalepsy in rats (in the presence of 1 mg/kg pimavanserin sc) is 0.24 mg/kg; in the data set on catalepsy in rats (in the presence of 3 mg/kg pimavanserin sc) it was 0.38 mg/kg; with catalepsy in rats (in the presence of 10 mg/kg pimavanserin sc), 0.53 mg/kg. In addition, the PRL levels entry in the data set with prolactin levels is “lower”. Besides, the Mean weight gain in data set [1] is 0.7657 kg. For the same compound, the Final mean weight in [1] (end of study) stood at 83.759 kg. Also, the “serum prolactin levels, dose response” value with serum prolactin levels is given as “dose-related increase in serum prolactin levels”. Further, the magnitude of prolactinemia entry with serum prolactin levels (fixed dose haloperidol (0.1 mg/kg) or risperidone (0.01 mg/kg) in the presence of pimavanserin, FIG. 20B) is “significantly attenuated”. In the data set with serum prolactin levels (haloperidol 0.1 mg/kg ip, vehicle 31±3), this compound showed a serum prolactin levels of 102 ± 12 ng/mL. For the same compound, the “suppression of amphetamine-induced hyperlocomotion” value in [2] (agent alone) was “dose dependently attenuated hyperactivity produced by amphetamine”. The ID50 came to 0.012 mg/kg in data set [2] (agent alone, sc, from % MPI); 0.0013 mg/kg in data set [2] (setting [17]); 0.07 mg/kg in data set [3]. In addition, the “suppression of amphetamine-induced hyperlocomotor activity” value in data set [2] is on record as “enhanced suppression of amphetamine-induced hyperlocomotor activity”. In data set [2] (setting [17]), the “shift of the dose-response curve” value is listed as “significantly shifted to the left by a factor of approximately 10”.
Consider `C[C@]12N[C@H](Cc3ccccc31)c1ccccc12` [dizocilpine], for which the “total distance traveled (DT)” value in data set [3] (dizocilpine 0.3 mg/kg ip, vehicle controls 792±40 cm, 649±67 cm) was 2227±116 cm and 2020±223 cm.
`Cc1nc2n(c(=O)c1CCN1CCC(c3noc4cc(F)ccc34)CC1)CCCC2` [Risperidone, risperidone]: in data set [4] (low dose risperidone (2 mg per day)), the “effectiveness compared with other treatments” value was “significantly less effective than the other treatments”. For the same compound, the “mean change in PANNS score” value in data set [4] (risperidone 2 mg per day, alone or co-administered with pimavanserin 20 mg per day) came to 16.6 points. For the same compound, the ID50 in [3] is listed as 0.0045 mg/kg. In [5], this compound displayed a K01 of 0.4403 h⁻¹ and a V1/F of 60222 mL.
As for `CC(N)Cc1ccccc1` (stereo not drawn) [amphetamine], in [2] (amphetamine 3 mg/kg ip, 15 min session, vehicle controls 876±42 cm), the “total distance traveled (DT)” value is on record as 2764±230 cm.
Turning to `CC(C)COc1ccc(CNC(=O)N(Cc2ccc(F)cc2)C2CCN(C)CC2)cc1` [Pimavanserin, N-(1-methylpiperidin-4-yl)-N-(4-fluorophenylmethyl)-N′-(4-(2-methylpropyloxy)phenylmethyl)carbamide], in [6], the K01 was 0.9197 L/h and the V/F is listed as 2182727 mL. The alpha-adrenergic antagonist activities entry with alpha-adrenergic is “lacks the alpha-adrenergic antagonist activities”. Further, in data set [7], the “gating deficit induced by DOI” value is “potently reversed the gating deficit induced by DOI”. The catalepsy entry in the data set with catalepsy in rats (doses up to 10 mg/kg) is given as “did not elicit catalepsy”. Further, the “maximum CV (catalepsy value)” value in the data set with catalepsy in rats (doses up to 10 mg/kg, vehicle 6.8±0.9 sec) turned out to be 10.5 ± 2.4 s. In [8] (setting [18]), the “Absorption rate constant (k01)” value is 0.9197 h⁻¹, the CL/F was found to be 6.4 L/h and the “Elimination rate constant (k10)” value worked out at 0.0121 h⁻¹. This compound gave a half-life in data set [8] (plasma, oral, 50 mg) of 57.3 h. In [8] (setting [19]), the highest level (Cmax) was 89.3 ng/mL and the Tmax worked out at 4.77 h. Further, the AUC(0-t) in data set [8] (plasma, 14th oral dose of 50 mg, 1-compartment model, read-out: AUC (0-24)ss) is 1890 ng·h/mL. For the same compound, the “working memory errors after repeated trials” value in data set [9] is listed as “improved the cognitive deficit induced by risperidone”. In data set [10], the fraction unbound is 0.05. The “oral clearance, previous reported value” in data set [11] is 25.2 L/h. Besides, the “percent novel object recognition” value in [12] is “reverses novel object recognition impairment caused by risperidone and olanzapine”. In addition, the “potency at the 5HT2B receptor” value on 5HT2B receptor is given as “lacks potency”. The compound further registered a serum prolactin concentrations in the data set on serum prolactin levels (3 mg/kg pimavanserin sc, 60 min, below the limit of detection, value of 15 ng/mL assigned, vehicle 31±3) of 15 ± 0 ng/mL. In the data set with serum prolactin levels, the “serum prolactin levels, dose response” value is on record as “did not significantly elevate serum prolactin levels”. Also, the “attenuation of hyperactivity induced by MK-801” value in data set [13] is given as “effective”. Also, in data set [2] (agent alone), the “suppression of amphetamine-induced hyperlocomotion” value is given as “failed to suppress hyperlocomotion produced by amphetamine”. The “activity at the histaminergic receptors” value with histaminergic receptors is on record as “does not have significant activity”. Further, the Pimavanserin brain levels in data set [14] is 23 (±6) nmol/kg. In data set [3], this compound yielded an ID50 of 0.09 mg/kg. In addition, the “DOI induced head twitches” value in data set [15] is listed as “effective”. Further, in data set [16], the “learning of a simple auto-shaped response” value is given as “failed to disrupt learning of a simple auto-shaped response”. Besides, in the data set on muscarinic receptors, the “activity at the muscarinic receptors” value is given as “does not have significant activity”.
Consider `OCCOCCN1CCN(C2=Nc3ccccc3Sc3ccccc32)CC1` [quetiapine], for which, in [2] (agent alone), the “suppression of amphetamine-induced hyperlocomotion” value is “dose dependently attenuated hyperactivity produced by amphetamine”. In data set [2], the “suppression of amphetamine-induced hyperlocomotor activity” value is on record as “enhanced suppression of amphetamine-induced hyperlocomotor activity”. In data set [2] (setting [17]), the “shift of the dose-response curve” value is reported as “shifted to the left”.
Turning to `O=C1CCc2ccc(OCCCCN3CCN(c4cccc(Cl)c4Cl)CC3)cc2N1` [aripiprazole], the “suppression of amphetamine-induced hyperlocomotion” value in [2] (agent alone) is listed as “dose dependently attenuated hyperactivity produced by amphetamine”. The “suppression of amphetamine-induced hyperlocomotor activity” value in [2] is “enhanced suppression of amphetamine-induced hyperlocomotor activity”. Besides, the “shift of the dose-response curve” value in data set [2] (setting [17]) is listed as “significantly shifted to the left”.

One may read the CL/F as clearance divided by bioavailability, as obtained after extravascular dosing. As usually defined, the half-life is how long it takes for the measured level to halve. Read a high half-life as slow loss. Broadly, the Cmax is the maximum level reached in the sampled fluid or tissue. As usually defined, the Tmax is the time at which the peak concentration occurs. What is called fraction unbound is the share of the substance not bound to proteins or other matrix.
